Assay [1] concerns H2122 lung carcinoma solid tumor xenograft. Description: H2122 lung carcinoma xenograft in nude mice. The class given is in vivo, athymic nude mice. The conditions noted are these: 5 mg/kg daily intraperitoneal, from day 7 after implantation, over the 25 days of treatment, FIG. 11. On the procedure: The efficacy of the treatment method was examined for both lung carcinoma-cell tumors and pancreatic-cell tumors implanted in athymic mice, according to the method detailed in Example 3. In the first study, mice injected with lung-carcinoma cells were treated, seven days after cancer-cell implantation, by daily injection of 5 mg/kg body weight of one of three different flurbiprofen analog compounds: B1005 (GCBH 104); B1020 (GCBH 108) and B1031 (GCBH 110). Tumor size was measured by calipers at the days indicated in FIG. 11, with final tumor weight and volume being determined by extracting the tumor from the sacrificed animals.
Compounds having high in vitro cytotoxic activity were tested against implanted tumors in vivo. In one study, athymic nude mice were implanted subcutaneously with suspensions of approximately 2 million H2122 lung carcinoma cells, in Matrigel suspension. On the seventh day after tumor implantation, groups of 5 mice bearing implants were injected intraperitoneally with the compounds being tested at 5 mg/kg/every day; control animals were injected with an equal volume of isotonic saline. […] Tumor size was measured with a caliper three times per week. Tumor volume was calculated by the formula: Volume (cc)=3.14×(length)×(width)^2/6
At autopsy, tumors were removed and weighed. Tumor inhibition was calculated on both weight and measurement basis.

Another assay concerns WM239a. In words: MTT cell viability, WM239a. The class given is cell-based. Particulars: Melanoma cell line WM239a. From the text: (§1) The ability of the flurbiprofen analog compounds of the invention to inhibit cancer cell growth and survival (viability) in a variety of cancer lines was examined in a standard MTT assay for cell viability, as detailed in Example 2.
(§2) The results for the several cell lines above were also consistent with IC50 values measured for two melanoma cell lines shown in Table 4 below.
(§3) Cell growth and survival following treatment with N—[(S)-2-Fluoro-α-methyl-4-biphenylacetyl]-[L-(4-phenylphenyl)alanine]-N-(2,2,6,6-tetramethyl-4-piperidinyl)amide (GCBH-110=B1031; (S)-Fmba-L-Bip-Atmp) were measured by a rapid colorimetric assay based on the tetrazolium salt MTT (3-(4,5-dimethylthiazol-2-yl)-2,5-diphenyl tetrazolium bromide) (Mosmann, J. Immunol. Methods 65: 55-63, 1983, with minor modifications).
(§4) Briefly, approximately 1,000-5,000 cancer cells from 15 different cancer cells lines were plated in 100 μL of growth medium in 96-well flat-bottomed microtiter plates. Cells were incubated overnight to allow recovery. Compounds to be tested were added to the cells in triplicate in a range of concentrations and the cells were incubated at 37° C., 5% CO2, with 100% humidity. Control cells were treated in the same way without antagonists. […] Absorbance was immediately determined using a scanning multiwell plate reader.

Another assay deals with WM375. In words: MTT cell viability, WM375. It counts as cell-based. Particulars: Melanoma cell line WM375.
Source text: as §1, §2, §3, §4

The subject of the next assay is H1648. Description: MTT cell viability, H1648. The class given is cell-based. The conditions noted are these: Homo sapiens, NCI-H1648, 96 h; SCLC lung cell line H1648; 4 days incubation. On the procedure: as §1
(§5) The studies reported in Tables 1-3 above were carried out by incubating the cells in the test compound for four days, under standard cell-culture conditions, and measuring cell survival on day 5 (see Example 2).
as §3, §4

The test system of a further assay is L35. Description: MTT cell viability, L35. It counts as cell-based. Particulars: Pancreatic cancer cell, 96 h; Pancreatic cancer cells L35; 4 days incubation.
Source text: as §1
(§6) Similar results were obtained for the effect of the B1031 compound on the 14 pancreatic tumor cells lines shown in Table 3 below, where the dose dependent effect of the compound on survival of the pancreatic cancer cell lines is shown in FIG. 5.
as §5, §3
(§7) Briefly, approximately 1,000-5,000 cancer cells from 15 different cancer cells lines were plated in 100 μL of growth medium in 96-well flat-bottomed microtiter plates. Cells were incubated overnight to allow recovery. […] Absorbance was immediately determined using a scanning multiwell plate reader.

In the next assay the test system is SHP77. In words: MTT cell viability, SHP77. The conditions noted are these: SCLC lung cell line SHP77, 4 days incubation. It counts as cell-based. On the procedure:
as §1, §5, §3, §4

Assay [2] has as its system MiaPaCa pancreatic carcinoma solid tumor xenograft. Description: MiaPaCa pancreatic carcinoma xenograft in nude mice. The class given is in vivo, athymic nude mice. Particulars: 5 mg/kg/every day intraperitoneal, beginning on the eleventh day following implantation, FIG. 12. The procedure: Similar results were obtained when the treatment method was applied to animals having pancreatic carcinoma implants, as shown in FIG. 12.
In a second study, athymic nude mice were implanted subcutaneously with suspensions of approximately 2 million MiaPaCa pancreatic carcinoma cells, in Matrigel suspension. […] The compound was initially dissolved in dimethyl sulfoxide (DMSO) and diluted with medium. Tumor size was measured with a caliper three times per week, and tumor volume calculated as above. At autopsy, tumors were removed and weighed.

The test system of a further assay is UMSCC19. Description: MTT cell viability, UMSCC19. The class given is cell-based. The conditions noted are these: Head and neck cancer cell line UMSCC19. The procedure: as §1
(§8) A similar study was conducted on 14 […] cancer cell lines, identified in Table 2.
as §3
(§9) Briefly, approximately 1,000-5,000 cancer cells from 15 different cancer cells lines were plated in 100 μL of growth medium in 96-well flat-bottomed microtiter plates. Cells were incubated overnight to allow recovery. Compounds to be tested were added to the cells in triplicate in a range of concentrations and the cells were incubated at 37° C., 5% CO2, with 100% humidity. Control cells were treated in the same way without antagonists. […] Plates were incubated for 4 days, allowing sufficient time for cell replication and compound-induced cell death to occur. […] Absorbance was immediately determined using a scanning multiwell plate reader. […]

A further assay concerns Panc-203. Description: MTT cell viability, Panc-203. It counts as cell-based. The conditions noted are these: Homo sapiens, Panc203, 96 h; Pancreatic cancer cells Panc-203; 4 days incubation.
Source text: as §1, §6, §5, §3, §7

Another assay deals with MSK921. In words: MTT cell viability, MSK921. The class given is cell-based. The conditions noted are these: Head and neck cancer cell line MSK921. On the procedure:
as §1, §8, §3, §9

Turning to `C[C@H](C(=O)N[C@@H](Cc1ccc(-c2ccccc2)cc1)C(=O)NC1CC(C)(C)NC(C)(C)C1)c1ccc(-c2ccccc2)c(F)c1` [GCBH-110, N—[(S)-2-Fluoro-α-methyl-4-biphenylacetyl]-[L-(4-phenylphenyl)alanine]-N-(2,2,6,6-tetramethyl-4-piperidinyl)amide], the “inhibition of growth of the lung carcinoma cell line H2122 tumor” value in assay [1] worked out at 76%. For the same molecule, the half-inhibitory concentration (IC50) in the assay on WM239a was determined as 230 nM; with WM375, 280 nM; with H1648, 280 nM; with L35 it was 800 nM; in the assay on SHP77 (Homo sapiens, SHP77, 96 h), 500 nM; in the assay on SHP77 (listed as B1031), 530 nM. The values for the IC50 in the assay on UMSCC19, in the assay with Panc-203 and in the assay with MSK921 were 2000 nM, 700 nM and 770 nM, respectively. For the same molecule, in assay [2], the “inhibition of MiaPaCa pancreatic carcinoma tumor growth” value is listed as 66%.
